Biological target: Dual-Specificity-Tyrosine-Phosphorylation-Regulated Kinase 1B (DYRK1B) (Homo sapiens, UniProt Q9Y463)
Assay: radiometric […]-ATP kinase assay with recombinant DYRK1B and DYRKtide substrate ([…] ATP)
Type: biochemical

Chain of Dual-Specificity-Tyrosine-Phosphorylation-Regulated Kinase 1B (DYRK1B) (Q9Y463 whole entry): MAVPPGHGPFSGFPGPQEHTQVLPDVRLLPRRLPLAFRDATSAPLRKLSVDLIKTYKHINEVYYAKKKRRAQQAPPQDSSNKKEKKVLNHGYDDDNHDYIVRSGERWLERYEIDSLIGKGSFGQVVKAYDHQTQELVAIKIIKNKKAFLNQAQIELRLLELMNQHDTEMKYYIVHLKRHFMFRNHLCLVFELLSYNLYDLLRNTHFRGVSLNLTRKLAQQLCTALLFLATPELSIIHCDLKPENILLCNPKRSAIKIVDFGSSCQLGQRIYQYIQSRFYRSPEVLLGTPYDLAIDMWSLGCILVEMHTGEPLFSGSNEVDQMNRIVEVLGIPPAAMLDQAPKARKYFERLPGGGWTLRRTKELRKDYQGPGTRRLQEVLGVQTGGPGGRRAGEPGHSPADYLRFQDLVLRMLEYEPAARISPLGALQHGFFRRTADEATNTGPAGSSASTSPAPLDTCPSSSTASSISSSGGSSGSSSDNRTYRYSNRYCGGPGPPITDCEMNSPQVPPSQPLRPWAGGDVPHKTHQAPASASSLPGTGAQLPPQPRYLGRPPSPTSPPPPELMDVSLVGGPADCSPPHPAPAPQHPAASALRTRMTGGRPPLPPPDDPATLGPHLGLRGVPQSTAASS

**Q.** `O=C(Nc1nc2cc(C(F)(F)F)ccc2[nH]1)c1csc(-c2ccc3c(c2)CCO3)n1` [DYRKi] was tested. Which IC50 did it give?
**A.** The IC50 was 0.09 µM.
